Results from the supplement of paper PMC10883282.

Columns and labels:
Test in all cases: relative viability vs DMSO control (72 h) (fraction); higher = more viable cells
SYO-1 = test system: SYO-1
Procedure, shortened: (§1)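 Sarcoma cell lines were seeded in 384-well plates at densities chosen for 80–90% confluence, then 24 h later given 2.5 µl of serially diluted compound drawn from source plates spanning 10 mM to 0.0002 mM. They were held 72 h at 37 °C, 5% CO2, with 0.1% DMSO vehicle and a 5 µM positive control included. Relative viability was read with ATPLite as percent growth and averaged over up to triplicate wells. Rescaling placed full at 1 and none at 0.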

SW1353 = test system: SW1353
Procedure, shortened: as §1

KHOS-240S = test system: KHOS-240S
Procedure, shortened: as §1

MES-SA = test system: MES-SA
Procedure, shortened: as §1

RD = test system: RD
Procedure, shortened: as §1

CCN1CCN(c2ccc(Nc3cc(N(C)C(=O)Nc4c(Cl)c(OC)cc(OC)c4Cl)ncn3)cc2)CC1 [Infigratinib]
relative viability
Details | KHOS-240S | MES-SA | RD | SW1353 | SYO-1
85 pM | 1.058 | 0.933 | 1.07 | 1.06 | 1.02
0.000254 µM | 1.11 | 0.94 | 1.06 | 1.069 | 0.973
0.00076 µM | 1.08 | 0.927 | 1.11 | 1.04 | 0.975
0.00229 µM | 1.06 | 0.928 | 1.13 | 1.01 | 0.901
0.00686 µM | 1.06 | 0.929 | 1.14 | 0.98 | 0.827
0.02058 µM | 0.986 | 0.869 | 1.12 | 0.914 | 0.655
0.0617 µM | 0.926 | 0.846 | 1.12 | 0.861 | 0.626
0.1852 µM | 0.932 | 0.733 | 1.14 | 0.861 | 0.63
0.5556 µM | 0.907 | 0.696 | 1.12 | 0.861 | 0.596
1.6667 µM | 0.874 | 0.556 | 1.13 | 0.8437 | 0.623
5 µM | 0.835 | 0.412 | 1.11 | 0.741 | 0.606

Cc1cc(F)c(C(=O)Nc2cccc(-c3nncn3C(C)C)n2)cc1-n1cnc(C2CC2)c1 [Selonsertib]
relative viability
Details | KHOS-240S | MES-SA | RD | SW1353 | SYO-1
0.00017 µM | 1.05 | 0.887 | 1.11 | 0.962 | 0.95
0.00051 µM | 1.07 | 0.892 | 1.11 | 0.977 | 0.947
0.00152 µM | 1.04 | 0.907 | 1.09 | 0.951 | 0.949
0.00457 µM | 1.06 | 0.893 | 1.1 | 0.95 | 0.94
0.01372 µM | 1.07 | 0.895 | 1.11 | 0.934 | 0.95
0.04115 µM | 1.06 | 0.93 | 1.1 | 0.953 | 0.965
0.1235 µM | 1.07 | 0.928 | 1.09 | 0.968 | 0.944
0.3704 µM | 1.06 | 0.912 | 1.11 | 0.994 | 0.921
1.111 µM | 1.03 | 0.87 | 1.12 | 0.986 | 0.886
3.333 µM | 0.983 | 0.78 | 1.11 | 0.977 | 0.828
10 µM | 0.736 | 0.368 | 1.11 | 0.964 | 0.5622

COC(=O)c1ccc2c(c1)NC(=O)/C2=C(\Nc1ccc(N(C)C(=O)CN2CCN(C)CC2)cc1)c1ccccc1 [Nintedanib]
relative viability
Details | KHOS-240S | MES-SA | RD | SW1353 | SYO-1
0.00017 µM | 1.05 | 0.933 | 1.03 | 0.995 | 1
0.00051 µM | 1.05 | 0.93 | 1.03 | 1.07 | 0.985
0.00152 µM | 1.04 | 0.942 | 0.989 | 1.02 | 0.971
0.00457 µM | 1.04 | 0.928 | 1.01 | 1.04 | 0.97
0.01372 µM | 1.04 | 0.898 | 0.977 | 1.02 | 0.901
0.04115 µM | 1.02 | 0.944 | 0.97 | 1.01 | 0.713
0.1235 µM | 0.985 | 0.934 | 0.96 | 1.01 | 0.643
0.3704 µM | 0.875 | 0.958 | 0.965 | 0.999 | 0.467
1.111 µM | 0.702 | 0.92 | 0.873 | 0.958 | 0.369
3.333 µM | 0.6 | 0.804 | 0.777 | 0.947 | 0.292
10 µM | 0.101 | 0.583 | 0.0216 | 0.57 | 0.099

O=C(/C=C\n1cnc(-c2cc(C(F)(F)F)cc(C(F)(F)F)c2)n1)NNc1cnccn1 [Selinexor]
relative viability
Details | KHOS-240S | MES-SA | RD | SW1353 | SYO-1
0.00017 µM | 1.08 | 1.011 | 1.052 | 1.11 | 1.02
0.00051 µM | 1.11 | 0.985 | 1.08 | 1.06 | 1.02
0.00152 µM | 1.08 | 0.971 | 1.09 | 1.12 | 1.02
0.00457 µM | 1.08 | 0.965 | 1.07 | 1.05 | 0.928
0.01372 µM | 1.07 | 0.911 | 1.01 | 1.03 | 0.804
0.04115 µM | 0.845 | 0.808 | 0.943 | 0.999 | 0.63
0.1235 µM | 0.511 | 0.4844 | 0.754 | 0.883 | 0.534
0.3704 µM | 0.249 | 0.342 | 0.51007 | 0.792 | 0.41
1.111 µM | 0.188 | 0.255 | 0.404 | 0.672 | 0.25
3.333 µM | 0.0642 | 0.189 | 0.304 | 0.616 | 0.136
10 µM | 0.0639 | 0.1447 | 0.252 | 0.511 | 0.0755

COc1cc2ncnc(Nc3ccc(F)c(Cl)c3)c2cc1OCCCN1CCOCC1 [Gefitinib]
relative viability
Details | KHOS-240S | MES-SA | RD | SW1353 | SYO-1
0.00017 µM | 1.01 | 0.97 | 1.03 | 1.03 | 1.01
0.00051 µM | 1.05 | 0.948 | 1.04 | 1.073 | 1.02
0.00152 µM | 1.01 | 0.959 | 1.03 | 0.999 | 0.999
0.00457 µM | 1.05 | 0.952 | 1.04 | 1.02 | 0.998
0.01372 µM | 1.03 | 0.937 | 0.995 | 1.02 | 0.999
0.04115 µM | 1.04 | 0.962 | 1.01 | 0.979 | 0.9815
0.1235 µM | 1 | 0.969 | 1.03 | 0.93 | 1
0.3704 µM | 1.03 | 0.969 | 1.01 | 0.903 | 0.983
1.111 µM | 1.01 | 0.925 | 1.05 | 0.928 | 0.955
3.333 µM | 0.921 | 0.739 | 1.05 | 0.892 | 0.829
10 µM | 0.318 | 0.4455 | 0.18 | 0.168 | 0.104
